This note sets out measurements from US20060069038A1, “Irreversible caspase-3 inhibitors as active site probes” (priority 2003, published 2006).

The subject of this assay is active caspases. The assay can be described thus: In vivo labeling of active caspases with [125I]-M808 in CLP-operated mice (thymi extracts). The settings on record: i.v. injection in CLP mice, radiolabeled p17 in thymi, FIG. 6. On the set-up: species or system mouse. How it is done: FIG. 6. A-Schematic representation of in vivo labeling of active caspases with [^125I]-M808 in CLP-operated mice. Mice underwent either sham surgery (n=2) or CLP surgery (n=5). [^125I]-M808 was injected intravenously 23.15 h later, and animals were euthanized 24 h post-surgery. B-Caspase-3 western blot of mouse thymi extracts following CLP and administration of [^125I]-M808. Arrows indicate full length pro-caspase-3 (p32) and the processed caspase large subunit (p17). C— in-vivo [^125I]-M808-labeled protein in thymi extracts from septic mice. Arrow points to a radiolabeled caspase large subunit.
Female Sprague-Dawley rats (250-300 g; Charles River, St-Constant, Qc, Canada) and ND4 mice (20-25 g Harlane Sprague-Dawley) were housed in a 12 hour light/dark cycle with free access to food and water. All procedures were carried out under appropriate Animal Care Committee approval in strict accordance to Merck and Co. animal care policies. For Cecal Ligation and Perforation, animals were anesthetized with 2.5% isoflurane and body temperature maintained by use of a thermoregulated heated blanket. A midline incision was made in the abdominal wall of the animal and the cecum exteriorized. The cecum was ligated with a nylon (4-0) suture proximal to the ileocecal valve. In mice, perforation of the cecum was done using a 23 g needle passed through the distal portion of the cecum. […]

Regarding `COc1ccc(I)cc1CC(=O)N[C@H](C(=O)NC(CC(=O)O)C(=O)CF)C(C)C` (stereo partly drawn) [[^125I]-M808, 5-fluoro-3-({N-[(5-iodo-2-methoxyphenyl)acetyl]-L-valyl}amino)-4-oxopentanoic acid], the “detection of active caspases in vivo” value is “can detect active caspases in vivo”.
